One assay addresses T1, BRAF (Homo sapiens, UniProt P15056).
T1 construct: purchased Reaction Biology Corp
Put plainly: Kinase HotSpot profiling (Reaction Biology Corp.). It is filed as biochemical. The following applies: ATP at Km. The method, then: (§1) Kinase assays were performed by Invitrogen (now Thermo Fisher Scientific, Waltham, MA) or Reaction Biology Corp. (Malvern, PA). Inhibitory activity of compounds for TAK1 was evaluated using LanthaScreen® Eu Kinase Binding Assay (Invitrogen, Waltham, MA). The kinase profile of compound 13h was determined by the kinase HotSpot Profiling service of Reaction Biology Corporation. All assays were performed at Km for ATP.

The target of the next assay is T2, MINK1/MAP4K6 (Homo sapiens, UniProt Q8N4C8).
T2 construct: purchased Reaction Biology Corp
T2 sequence (Q8N4C8 whole entry): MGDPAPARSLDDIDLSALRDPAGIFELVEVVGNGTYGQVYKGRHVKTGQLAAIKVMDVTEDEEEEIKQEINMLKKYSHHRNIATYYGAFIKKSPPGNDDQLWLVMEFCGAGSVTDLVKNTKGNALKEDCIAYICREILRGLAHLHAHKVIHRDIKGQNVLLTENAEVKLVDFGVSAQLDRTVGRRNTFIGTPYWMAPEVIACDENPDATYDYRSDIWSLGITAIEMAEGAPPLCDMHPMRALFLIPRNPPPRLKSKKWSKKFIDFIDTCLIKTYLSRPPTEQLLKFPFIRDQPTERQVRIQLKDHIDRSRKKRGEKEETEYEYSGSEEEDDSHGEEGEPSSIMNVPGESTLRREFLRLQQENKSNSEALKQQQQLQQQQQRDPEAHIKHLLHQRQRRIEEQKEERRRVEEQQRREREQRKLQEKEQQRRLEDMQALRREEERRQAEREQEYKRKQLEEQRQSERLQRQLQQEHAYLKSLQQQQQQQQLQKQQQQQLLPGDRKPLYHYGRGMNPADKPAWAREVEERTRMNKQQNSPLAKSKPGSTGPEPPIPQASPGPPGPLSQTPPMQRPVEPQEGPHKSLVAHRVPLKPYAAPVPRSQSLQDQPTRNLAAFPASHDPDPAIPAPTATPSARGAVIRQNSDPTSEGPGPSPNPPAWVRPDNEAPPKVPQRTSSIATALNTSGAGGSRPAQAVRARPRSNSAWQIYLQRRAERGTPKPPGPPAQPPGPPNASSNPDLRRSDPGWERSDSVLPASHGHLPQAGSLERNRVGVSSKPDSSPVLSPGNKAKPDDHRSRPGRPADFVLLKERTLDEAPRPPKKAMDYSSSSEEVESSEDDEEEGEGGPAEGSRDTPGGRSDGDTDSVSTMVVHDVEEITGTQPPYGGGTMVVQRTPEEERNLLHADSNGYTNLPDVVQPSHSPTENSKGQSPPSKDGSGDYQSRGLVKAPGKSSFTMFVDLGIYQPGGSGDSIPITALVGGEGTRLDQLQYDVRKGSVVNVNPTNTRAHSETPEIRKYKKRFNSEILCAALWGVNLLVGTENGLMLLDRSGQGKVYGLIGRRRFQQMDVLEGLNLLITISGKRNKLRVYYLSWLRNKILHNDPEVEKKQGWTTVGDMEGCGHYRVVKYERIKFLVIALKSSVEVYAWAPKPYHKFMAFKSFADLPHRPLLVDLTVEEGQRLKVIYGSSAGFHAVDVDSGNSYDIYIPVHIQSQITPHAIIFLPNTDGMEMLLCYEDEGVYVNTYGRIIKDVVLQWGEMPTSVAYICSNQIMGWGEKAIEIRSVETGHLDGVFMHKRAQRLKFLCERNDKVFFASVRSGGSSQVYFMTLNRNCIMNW
Put plainly: Kinase HotSpot profiling (Reaction Biology Corp.). Type of assay: biochemical. The following applies: ATP at Km. The method, then:
as §1

The next assay addresses T3, MEKK6 (Homo sapiens, UniProt O95382).
T3 construct: purchased Reaction Biology Corp
T3 sequence (O95382 1-1288): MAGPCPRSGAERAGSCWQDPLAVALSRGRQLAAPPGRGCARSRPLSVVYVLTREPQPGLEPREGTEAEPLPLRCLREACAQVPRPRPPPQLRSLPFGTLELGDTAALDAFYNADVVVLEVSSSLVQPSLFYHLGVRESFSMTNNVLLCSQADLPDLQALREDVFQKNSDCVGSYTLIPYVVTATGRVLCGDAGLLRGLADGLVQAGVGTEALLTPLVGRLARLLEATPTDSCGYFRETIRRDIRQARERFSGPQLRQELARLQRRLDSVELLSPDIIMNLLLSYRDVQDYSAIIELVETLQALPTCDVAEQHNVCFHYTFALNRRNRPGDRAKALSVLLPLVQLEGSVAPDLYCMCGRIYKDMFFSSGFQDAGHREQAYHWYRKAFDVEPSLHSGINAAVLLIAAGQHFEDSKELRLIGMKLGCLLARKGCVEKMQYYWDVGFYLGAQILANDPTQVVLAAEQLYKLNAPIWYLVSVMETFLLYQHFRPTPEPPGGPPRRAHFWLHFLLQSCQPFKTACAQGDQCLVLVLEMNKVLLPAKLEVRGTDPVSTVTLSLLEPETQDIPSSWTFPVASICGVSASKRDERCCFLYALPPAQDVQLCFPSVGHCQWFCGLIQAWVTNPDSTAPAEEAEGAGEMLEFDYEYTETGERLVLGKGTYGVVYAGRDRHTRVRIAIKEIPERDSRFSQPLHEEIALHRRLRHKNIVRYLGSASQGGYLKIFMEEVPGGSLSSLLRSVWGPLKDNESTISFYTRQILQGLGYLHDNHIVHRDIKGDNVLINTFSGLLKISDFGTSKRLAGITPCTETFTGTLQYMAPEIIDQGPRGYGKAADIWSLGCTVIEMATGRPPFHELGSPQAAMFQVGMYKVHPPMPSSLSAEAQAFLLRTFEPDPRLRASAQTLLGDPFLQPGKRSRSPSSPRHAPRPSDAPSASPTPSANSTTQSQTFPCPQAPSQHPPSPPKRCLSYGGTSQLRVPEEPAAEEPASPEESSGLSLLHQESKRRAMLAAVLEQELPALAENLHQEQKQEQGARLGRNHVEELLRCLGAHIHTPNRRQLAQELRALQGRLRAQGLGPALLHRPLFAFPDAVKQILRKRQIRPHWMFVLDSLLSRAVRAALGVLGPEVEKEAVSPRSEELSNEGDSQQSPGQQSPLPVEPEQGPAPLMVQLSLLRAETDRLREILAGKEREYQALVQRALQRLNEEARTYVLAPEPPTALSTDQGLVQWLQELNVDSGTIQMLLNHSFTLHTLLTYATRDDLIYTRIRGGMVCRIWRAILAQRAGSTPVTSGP
Put plainly: Kinase HotSpot profiling (Reaction Biology Corp.). It is filed as biochemical. The settings on record: ATP at Km. The method, then: as §1

The test system of another assay is MDA-MB-231 cells. Put plainly: Caspase-3/7 assay (Apo-ONE). Type of assay: cell-based. The following applies: 0.5 µM, presence of TNFα (10 ng/ml), 24 h, MDA-MB-231. The method, then:
MDA-MB-231 cells were obtained from the Korean Cell Line Bank. Cells were cultured in Roswell Park Memorial Institute (RPMI) 1640 medium containing 10% foetal bovine serum and 1% penicillin/streptomycin at 37 °C with 5% CO2 under humidified atmosphere.
The assay was performed using Apo-ONE® Homogeneous Caspase-3/7 Assay kits (Catalogue No. G7790, Promega, Madison, WI). MDA-MB-231 cells in a concentration of 5000 cells/100 µl were seeded in each well of a black 96-well plate and starved after adhering to the plate. The cells were incubated for 24 h, and the serum-starved cells were treated with either Takinib or 13h in the presence or absence of TNFα (10 ng/ml). All samples and the control contained DMSO in a final concentration of 0.5%. After another 24 h of incubation, 100 µL of Apo-ONE® caspase-3/7 reagent was added to each well, and the cells were incubated at room temperature in darkness for 2 h. Fluorescence was then measured at 530 nm with excitation at 485 nm using a FlexStation 3 Multi-Mode microplate reader (Molecular Devices). Statistical analyses of the data included a one-way ANOVA, followed by Tukey’s multiple comparison test.

What is called inhibition is the drop in the measured response relative to a control, in per cent. Read a high inhibition as a strong effect.

The structures appear in SMILES notation.

T1 sequence (P15056 whole entry): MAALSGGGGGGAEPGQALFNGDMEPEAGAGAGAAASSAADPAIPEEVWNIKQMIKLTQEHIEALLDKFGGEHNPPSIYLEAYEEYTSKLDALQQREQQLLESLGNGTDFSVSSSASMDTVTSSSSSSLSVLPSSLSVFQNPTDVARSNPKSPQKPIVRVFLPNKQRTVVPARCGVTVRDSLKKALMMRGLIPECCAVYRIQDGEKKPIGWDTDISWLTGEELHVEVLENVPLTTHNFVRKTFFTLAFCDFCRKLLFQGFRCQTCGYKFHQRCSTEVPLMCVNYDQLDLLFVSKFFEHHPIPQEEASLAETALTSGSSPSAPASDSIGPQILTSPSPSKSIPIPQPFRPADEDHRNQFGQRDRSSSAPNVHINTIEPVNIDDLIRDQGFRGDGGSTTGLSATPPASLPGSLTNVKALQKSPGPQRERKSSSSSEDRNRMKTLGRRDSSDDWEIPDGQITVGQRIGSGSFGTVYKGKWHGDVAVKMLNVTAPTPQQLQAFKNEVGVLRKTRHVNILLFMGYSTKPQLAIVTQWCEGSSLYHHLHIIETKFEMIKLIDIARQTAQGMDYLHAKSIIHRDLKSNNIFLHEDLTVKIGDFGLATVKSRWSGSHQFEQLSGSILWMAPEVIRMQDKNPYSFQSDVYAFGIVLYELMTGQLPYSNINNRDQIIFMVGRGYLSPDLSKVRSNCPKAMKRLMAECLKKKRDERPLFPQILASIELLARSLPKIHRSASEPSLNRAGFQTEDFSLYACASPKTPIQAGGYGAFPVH

Regarding `Cc1cccc(/C=C(\C#N)C(=O)N[C@@H]2CCN(c3c(Cl)cnc4[nH]c(-c5ccc(N6CCN(C)CC6)cc5)nc34)C2)n1` [Compound 13h, (R,E)-N-(1–(6-chloro-2–(4-(4-methylpiperazin-1-yl)phenyl)-3H-imidazo[4,5-b]pyridin-7-yl)pyrrolidin-3-yl)-2-cyano-3-(6-methylpyridin-2-yl)acrylamide], the inhibition at 1 µM turned out to be 0% at BRAF, 15 ± 2.4% on MINK1/MAP4K6 and 0% on MEKK6. Further, the caspase-3/7 activity result in the assay on MDA-MB-231 cells is listed as “induced significant caspase activation”.

The values above are taken from article PMC7594721, “Synthesis and biological activity of 2-cyanoacrylamide derivatives tethered to imidazopyridine as TAK1 inhibitors” (Journal of Enzyme Inhibition and Medicinal Chemistry, 2020).
